Measurements: patent US20010019832A1, “Methods for identification using U0126” (priority 2000, published 2001)

Legend:
[1] = test system: PKB; experiment: PKB activity in L6 cells; type: cell-based, rat; conditions: differentiated L6 cells, incubated 10 min
[2] = test system: INS-1 cells; conditions: U0126 10 μM, 24 hours
Protocol: Insulin secretion in INS-1 cells was determined. INS-1 cells were seeded in 24-well plates. Thirty minutes before assay the glucose concentration was decreased to 2.8 mM. After the incubation in low glucose medium, glucose (up to 16 mM) or U0126 (10 μM) were added. After 24 hours, samples were collected and analyzed in the rat insulin ELISA.

[3] = test system: L6 cells; experiment: Glucose oxidation in L6 cells (14CO2 trapping); type: cell-based, rat; conditions: 5 mM glucose; for Glucose oxidation: insulin 176 nM or U0126 10 μM added 1 h before
Description: (§1) The principle of the used glucose/free fatty acid, (FFA) oxidation assay is based on the fact that one of the final products along metabolic pathways of these two substrates is carbon dioxide. Since the substrates are uniformly ^14C labeled, the radioactivity in carbon dioxide trap is a direct measure of metabolic activity in studied cells (Rodbell, M. (1964) J. Biol. Chem. 239: 375-380).
(§2) As further described in International Patent Application No. PCT/SE00/02680, filed Dec. 27, 2000, cells were cultivated until sub-confluence in T-25 Costar flasks. Prior to the experiment, the cells were deprived of serum for 6 hours in DMEM medium containing 5 mM glucose. 3 ml of medium supplemented with (U-^14C)-glucose or (U^14C)-palmitic acid (0.2 μCi/ml) were added to each flask. A filter paper (1.5×5.5 cm) soaked in hyamine solution was rolled up, blotted on a paper towel to remove excess of fluid, and placed carefully into the tube of the device described in International Patent Application No. PCT/SE00/02680. The tube was mounted in the flasks, the screw caps were tightened and cells were incubated at 37° C. for a suitable time period. The reaction was terminated by adding sulfuric acid to the culture medium and the cells were incubated for additional 60 min. The filter paper was removed, cut into small pieces and transferred to scintillation vials. Methanol (0.2 ml) was added to each vial to increase the solubility of hyamine-CO2 in the scintillation fluid. Finally the radioactivity was measured. The remaining cells were washed briefly with ice cold PBS, solubilized with 1 M KOH and the protein content was determined by the Bradford method (Bradford, M. M. (1976) Anal. Biochem. 72: 248-254).
Glucose oxidation in L6 cells in the presence of 5 mM glucose was determined as described in “Experimental Methods”. One hour prior to determination of glucose oxidation, insulin or U0126 was added to a concentration of 176 nM or 10 μM, respectively.

[4] = test system: AP-1; conditions: Duncia et al. 1998; cited from earlier work
[5] = test system: MEK½; conditions: Favata et al. 1998; cited from earlier work
[6] = test system: L6 cells; experiment: Glucose uptake rate in L6 cells; type: cell-based, rat; conditions: 5 mM glucose; for Glucose uptake rate: U0126 10 μM or PD98059 10 μM for 20 h, insulin 176 nM 1 h before
Protocol: (§3) Glucose uptake was determined as described by Hundal et al. (1994) Biochem. J. 297: 289-295. Briefly, after incubation with insulin for one hour, cell monolayers were rinsed with glucose-free PBS. Glucose uptake was quantified by incubating the cells in the presence of 1 μCi/ml ^3H-2-deoxy-glucose in PBS for 8 min. Uptake of 2-deoxy-glucose was terminated by rapidly aspirating the medium, followed by two successive washes of cell monolayers with ice cold PBS. The cells were lysed in 0.5 M NaOH, followed by liquid scintillation counting. Rates of transport were normalized for protein content in each well.
Glucose uptake rate in L6 cells, in the presence of 5 mM glucose, was determined. The cells were incubated in serum-free medium supplemented with U0126 (10 μM), PD98059 (10 μM) or wortmannin (100 nM) for 20 h. Insulin (176 nM) was added 1 h before the determination of glucose uptake rate. Glucose uptake was determined as described above.

[7] = test system: human skeletal muscle cells (hSkMC); experiment: Glucose uptake rate in human skeletal muscle cells; type: cell-based; conditions: 5 mM glucose, insulin 176 nM or U0126 10 μM added 30 min before
Protocol: as §3
Glucose uptake rate in human skeletal muscle cells (hSkMC), in the presence of 5 mM glucose, was determined. The cells were incubated in serum-free medium (PromoCell) for 2 h. Insulin (176 nM) or U0126 (10 μM) were added 30 min before determination of glucose uptake rate.

[8] = test system: SH-SY5Y cells; experiment: Glucose uptake rate in SH-SY5Y cells; type: cell-based, human; conditions: 5 mM glucose, U0126 10 μM or insulin 176 nM added 1 h before
Protocol: as §3
Glucose uptake rate in SH-SY5Y cells in the presence of 5 mM glucose was determined. The cells were incubated in serum-free medium over night. Approximately 20 h later U0126 (10 μM), wortmannin (100 nM) or insulin (176 nM) were added, 1 h before the determination of glucose uptake rate.

[9] = test system: L6 cells; experiment: Palmitate oxidation in L6 cells (14CO2 trapping); type: cell-based, rat; conditions: for Palmitate oxidation in the presence of 5 mM glucose: data not shown
Description: as §1, §2
In a cell system, insulin resistance can be provoked experimentally by raising the concentrations of glucose, fat or both in the medium, or by treating the cells with the cytokine Tumor Necrosis Factor alpha (TNF alpha) before insulin stimulation. […] Palmitate oxidation was determined as described in “Experimental methods”. […]

Q: Which results are given for `N#CC(=C(N)Sc1ccccc1N)C(C#N)=C(N)Sc1ccccc1N` [U0126, 1,4-diamino-2,3-dicyano-1,4-bis [2-aminophenylthio] butadiene]?
A: PKB activity [1]: no effect; Insulin secretion [2]: increased insulin secretion; Glucose oxidation, U0126 and insulin incubated together ([3]; U0126 10 μM plus insulin 176 nM): A small increase; Glucose oxidation [3]: increased glucose oxidation; Inhibition of AP-1 transactivation [4]: inhibitor of AP-1 transactivation; Inhibition of MEK½ [5]: specifically inhibits MEK½ in both the inactive and active forms; Glucose uptake rate, U0126 and insulin incubated together ([6]; U0126 10 μM 20 h plus insulin 176 nM 1 h): no further increase compared to U0126 alone; Glucose uptake rate [6]: increased glucose uptake; Glucose uptake rate [7]: increase glucose uptake; Glucose uptake rate [8]: increased glucose uptake; Palmitate oxidation in the presence of 5 mM glucose [9]: decreased palmitate oxidation; Palmitate oxidation during insulin resistant conditions ([9]; 12 mM glucose and 480 μM palmitate for 20 hours, U0126 10 μM 1 h before): decreased palmitate oxidation

Q: Which PKB activity [1] does the source give for “insulin: Bovine insulin purchased from Gibco Laboratories” here?
A: increased PKB activity three-fold

Q: And the Glucose oxidation [3]?
A: increased glucose oxidation

Q: And the Glucose uptake rate [6]?
A: increased glucose uptake

Q: And the Glucose uptake rate [7]?
A: increase glucose uptake

Q: What about the Glucose uptake rate [8] of the same compound?
A: increased glucose uptake

Q: And the “Palmitate oxidation in the presence of 5 mM glucose” value [9]?
A: decreased palmitate oxidation
